# Data reported in patent US20110195425A1, “SYSTEMS AND METHODS FOR DIAGNOSING PARASITE INFECTIONS” (priority 2010, published 2011).
# Values joined by “and” are separate entries in the source; they are usually repeats but may differ in a detail not shown here. Equal entries are not always repeated.
# Key:
# peroxidase = experiment: Peroxidase assay in saliva (Amplex Red); format: biochemical; details: single compounds at 500 ppm; pooled and unpooled saliva; 30 minutes; FIGS. 26-29
# Experimental: To determine the effect of various GRAS compounds as inhibitors of peroxidase activity, a standard assay using Amplex® Red (Life Technologies), which releases a fluorescent oxidation product.
# The test compounds, such as GRAS materials or cocktails of same, were prepared at a concentration of 500 ppm in distilled water. For the assay, 50 μl samples of test compounds were mixed with 20-30 μl of saliva (either “pooled” or “unpooled”) prior to the addition of Amplex® Red. Following the mixture of the test compounds with saliva, […] Amplex® Red/HRP working solution (See Protocol for Invitrogen Assay #A22188, which is incorporated herein in its entirety), which has a concentration of 100 μM of Amplex® Red, is added to the test compound/saliva mixture. […] Reactions were allowed to run for 30 minutes during these assays.
# α-amylase = target: T1, α-amylase (Homo sapiens, UniProt P0DUB6); experiment: α-Amylase inhibition saliva screening (2-chloro-p-nitrophenol-maltotriose substrate, absorbance 405 nm); format: biochemical; details: for Ave (α-amylase assay reading): average of four readings; for α-amylase assay single reading (absorbance at 405 nm): saliva, test compound prepared at 5,000 ppm, 37° C., replicate readings
# T1 sequence (P0DUB6 16-511): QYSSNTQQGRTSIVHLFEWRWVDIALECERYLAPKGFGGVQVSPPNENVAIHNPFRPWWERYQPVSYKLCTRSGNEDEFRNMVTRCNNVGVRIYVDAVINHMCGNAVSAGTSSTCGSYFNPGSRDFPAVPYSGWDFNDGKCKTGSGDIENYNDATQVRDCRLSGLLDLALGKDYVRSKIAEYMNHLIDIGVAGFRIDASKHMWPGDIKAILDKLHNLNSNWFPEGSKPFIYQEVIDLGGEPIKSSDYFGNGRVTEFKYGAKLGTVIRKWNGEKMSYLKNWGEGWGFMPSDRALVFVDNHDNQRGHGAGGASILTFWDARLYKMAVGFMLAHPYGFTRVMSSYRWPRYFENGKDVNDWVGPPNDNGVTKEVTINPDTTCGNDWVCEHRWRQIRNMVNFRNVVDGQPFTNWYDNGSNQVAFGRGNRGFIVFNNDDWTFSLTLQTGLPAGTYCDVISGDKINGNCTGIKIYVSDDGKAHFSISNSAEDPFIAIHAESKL
# From the text: Enzymatic activity of α-amylase on the substrate yields 2-chloro-p-nitrophenol, which can be measured spectrophotometrically at 405 nm. The amount of α-amylase activity present in the experimental sample is directly proportional to the increase in absorbance at 405 nm.
Compound,peroxidase inhibition (peroxidase),Ave (α-amylase assay reading) (α-amylase; 0 min),α-amylase assay single reading (absorbance at 405 nm) (α-amylase; 0 min),Ave (α-amylase assay reading) (α-amylase; 5 min),α-amylase assay single reading (absorbance at 405 nm) (α-amylase; 5 min),Ave (α-amylase assay reading) (α-amylase; 15 min),α-amylase assay single reading (absorbance at 405 nm) (α-amylase; 15 min),"α-amylase assay single reading (absorbance at 405 nm) (α-amylase; 0 min, sulfate hydrate)","α-amylase assay single reading (absorbance at 405 nm) (α-amylase; 5 min, sulfate hydrate)","α-amylase assay single reading (absorbance at 405 nm) (α-amylase; 15 min, sulfate hydrate)"
"Cn1c(=O)c2c(ncn2C)n(C)c1=O [CDI #33, Caffeine]",significant peroxidase inhibition capabilities,–,–,–,–,–,–,–,–,–
Aluminum potassium sulfate dodecahydrate [CDI-42],significant peroxidase inhibition capabilities,0.92,0.80 and 1.13 and 0.90 and 0.84,1.85,1.65 and 2.15 and 1.80 and 1.81,2.29,2.37 and 2.38 and 2.25 and 2.17,–,–,–
"COc1ccc(O)c(C(C)(C)C)c1 [CDI-039, 3-tert--butyl-hydroxyanisole]",significant peroxidase inhibition capabilities,–,–,–,–,–,–,–,–,–
Aluminum sulfate hydrate [CDI-34],–,0.40,–,0.50,–,0.56,–,0.40 (2×) and 0.36 and 0.45,0.49 and 0.50 (2×) and 0.52,0.53 and 0.61 and 0.54 and 0.56
